Assay results taken from article PMC3292765 (Chemistry & biology, 2012).
Where two headings read alike, the source gives them in different places.

Key:
p67^phox [1] = target: T1, p67^phox (Homo sapiens, UniProt P19878); experiment: microscale thermophoresis with labeled recombinant protein; format: binding
T1 sequence (P19878 1-212): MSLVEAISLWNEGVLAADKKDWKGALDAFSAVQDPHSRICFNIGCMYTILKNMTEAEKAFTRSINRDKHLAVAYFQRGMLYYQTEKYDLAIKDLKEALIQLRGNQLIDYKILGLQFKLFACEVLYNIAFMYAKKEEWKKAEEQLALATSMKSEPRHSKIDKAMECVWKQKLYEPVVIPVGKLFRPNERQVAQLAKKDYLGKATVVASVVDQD

p67^phox [2] = target: T1, p67^phox; experiment: as above; format: binding; remark: listed apart in the source

Row | Kd (p67^phox [1]) | Kd (p67^phox [2]) | Compound
1 | ~150 nM |  | O=[N+]([O-])c1cccc(C2Nc3ccc([N+](=O)[O-])cc3C3C=CCC32)c1 (centres unmarked) [compound 16, Phox-I2]
2 |  | ~100 nM | Phox-I1
